Data as given in patent US20260297085A1, “1 H-PYRROLO[2,3-B]PYRIDIN-4-YL]-2-OXOPYRROLIDINE-3-CARBONITRILE DERIVATIVES AS TYROSINE KINASE 2 (TYK2) INHIBITORS FOR THE TREATMENT OF INFLAMMATORY DISEASES” (BIOGEN MA INC., priority 2023, published 2026).
Counter-ions that a name gives are not always drawn.

Experiments:
[1] = biological target: Tyk2 kinase activity on STAT4 in NK92 cells (Homo sapiens, UniProt P29597); test: pSTAT4 cell assay (MSD; NK92 cells, 30 ng/mL IL2 stimulation); type: cell-based; conditions: 30 ng/mL IL2, 15 minutes
Outline: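 IC50 values come from 4-parameter logistic fits of normalized percent activity. Phospho-STAT was read by MSD (anti-STAT4 antibodies) in NK92 lysates after a 15 min stimulation with 30 ng/mL IL2. The serum-starved cells had been given compound for 1 h (10 points, four-fold, top 10 μM).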

[2] = biological target: T1, human JAK1 kinase domain (JH1) (Homo sapiens, UniProt P23458); test: JH1 biochemical assay for JAK1 (ADP-Glo kinase assay, recombinant JH1 catalytic domain, JAK3-342 peptide, 35 μM ATP)
T1 construct: recombinantly generated catalytic kinase (also known as JH1) domain of human JAK1, JAK2, JAK3 and TYK2
Outline: (§1)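 ADP-Glo luminescence with 50 μM peptide and 100 min reactions: JAK1 4 nM with JAK3-342 peptide; JAK2, JAK3 and TYK2 at 0.2, 0.3 and 2 nM with JAK3-974 peptide. Compounds tested from 10 or 1 μM top, 11 points, 3-fold. IC50 from a 4-parameter logistic fit of normalized activity.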

[3] = biological target: T2, human JAK2 kinase domain (JH1) (Homo sapiens, UniProt O60674); test: JH1 biochemical assay for JAK2 (ADP-Glo kinase assay, recombinant JH1 catalytic domain, JAK3-974 peptide, 15 μM ATP)
T2 construct: recombinantly generated catalytic kinase (also known as JH1) domain of human JAK1, JAK2, JAK3 and TYK2
Outline: as §1

[4] = biological target: T3, human TYK2 kinase domain (JH1) (Homo sapiens, UniProt P29597); test: JH1 biochemical assay for TYK2 (ADP-Glo kinase assay, recombinant JH1 catalytic domain, JAK3-974 peptide, 10 μM ATP)
T3 construct: recombinantly generated catalytic kinase (also known as JH1) domain of human JAK1, JAK2, JAK3 and TYK2
T3 sequence (P29597 897-1176 limits assumed): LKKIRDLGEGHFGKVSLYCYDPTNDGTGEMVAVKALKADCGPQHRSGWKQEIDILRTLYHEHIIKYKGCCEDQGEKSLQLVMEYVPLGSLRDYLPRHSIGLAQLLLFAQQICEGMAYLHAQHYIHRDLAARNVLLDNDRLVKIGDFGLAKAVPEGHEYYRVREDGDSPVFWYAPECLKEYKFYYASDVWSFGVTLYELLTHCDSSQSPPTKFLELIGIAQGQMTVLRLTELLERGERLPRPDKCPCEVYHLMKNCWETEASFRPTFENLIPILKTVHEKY
Outline: as §1

[5] = biological target: JAK1 kinase activity on STAT3 in TF1 cells (Homo sapiens, UniProt P23458); test: pSTAT3 cell assay (MSD; TF1 cells, 30 ng/mL IL-6 stimulation); type: cell-based; conditions: 30 ng/mL IL-6, 15 minutes
Outline: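 Serum starvation, 1 h compound (10 pt, 4-fold from 10 μM), IL-6 15 min, lysis. pSTAT3 read by MSD immunoassay, anti-STAT3 Abs. Normalized % activity vs log[cpd], 4-PL fit → IC50.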

[6] = biological target: T4, human JAK3 kinase domain (JH1) (Homo sapiens, UniProt P52333); test: JH1 biochemical assay for JAK3 (ADP-Glo kinase assay, recombinant JH1 catalytic domain, JAK3-974 peptide, 4 μM ATP)
T4 construct: recombinantly generated catalytic kinase (also known as JH1) domain of human JAK1, JAK2, JAK3 and TYK2
Outline: as §1

[7] = biological target: JAK2 kinase activity on STAT5 in TF1 cells (Homo sapiens, UniProt O60674); test: pSTAT5 cell assay (MSD; TF1 cells, 30 ng/mL IL-3 stimulation); type: cell-based; conditions: 30 ng/mL IL-3, 15 minutes
Outline: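 IC50 from a 4-parameter logistic fit of normalized pSTAT5 signal, measured by MSD in lysates of TF1 cells. Cells were serum-starved, exposed to compound for 1 h (top concentration 10 μM, four-fold, 10 points), then given IL-3 at 30 ng/mL for 15 min.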

JAK2 kinase activity on STAT5 in TF1 cells, sequence (O60674 whole entry): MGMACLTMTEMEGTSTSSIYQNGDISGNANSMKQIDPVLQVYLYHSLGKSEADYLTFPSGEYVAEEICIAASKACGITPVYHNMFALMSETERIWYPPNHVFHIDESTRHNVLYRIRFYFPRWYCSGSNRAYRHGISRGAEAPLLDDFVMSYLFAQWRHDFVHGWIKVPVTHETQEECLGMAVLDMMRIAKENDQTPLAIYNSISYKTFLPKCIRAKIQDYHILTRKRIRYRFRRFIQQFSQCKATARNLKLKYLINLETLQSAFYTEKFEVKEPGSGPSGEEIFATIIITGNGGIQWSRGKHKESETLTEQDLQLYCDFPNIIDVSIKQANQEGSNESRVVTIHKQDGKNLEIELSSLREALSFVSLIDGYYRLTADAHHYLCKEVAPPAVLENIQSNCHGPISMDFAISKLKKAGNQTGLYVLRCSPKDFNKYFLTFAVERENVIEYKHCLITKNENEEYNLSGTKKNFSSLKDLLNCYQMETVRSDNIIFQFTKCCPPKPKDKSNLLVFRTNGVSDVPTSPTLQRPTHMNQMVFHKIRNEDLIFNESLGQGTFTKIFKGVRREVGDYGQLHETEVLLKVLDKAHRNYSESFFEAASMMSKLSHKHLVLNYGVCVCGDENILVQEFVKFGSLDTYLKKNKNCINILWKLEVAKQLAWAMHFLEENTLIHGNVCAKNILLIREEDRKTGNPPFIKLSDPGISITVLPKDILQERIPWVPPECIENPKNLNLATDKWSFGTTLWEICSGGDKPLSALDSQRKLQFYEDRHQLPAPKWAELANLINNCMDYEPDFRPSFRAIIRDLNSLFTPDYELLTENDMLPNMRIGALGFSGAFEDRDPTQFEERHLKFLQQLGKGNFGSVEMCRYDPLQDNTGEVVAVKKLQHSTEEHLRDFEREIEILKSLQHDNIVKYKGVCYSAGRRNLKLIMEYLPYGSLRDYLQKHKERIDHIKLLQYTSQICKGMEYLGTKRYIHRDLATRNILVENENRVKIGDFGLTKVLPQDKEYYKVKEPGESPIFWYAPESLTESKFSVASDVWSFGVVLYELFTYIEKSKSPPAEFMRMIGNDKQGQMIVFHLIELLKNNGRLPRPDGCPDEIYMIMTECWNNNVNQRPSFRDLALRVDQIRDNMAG
JAK1 kinase activity on STAT3 in TF1 cells, sequence (P23458 whole entry): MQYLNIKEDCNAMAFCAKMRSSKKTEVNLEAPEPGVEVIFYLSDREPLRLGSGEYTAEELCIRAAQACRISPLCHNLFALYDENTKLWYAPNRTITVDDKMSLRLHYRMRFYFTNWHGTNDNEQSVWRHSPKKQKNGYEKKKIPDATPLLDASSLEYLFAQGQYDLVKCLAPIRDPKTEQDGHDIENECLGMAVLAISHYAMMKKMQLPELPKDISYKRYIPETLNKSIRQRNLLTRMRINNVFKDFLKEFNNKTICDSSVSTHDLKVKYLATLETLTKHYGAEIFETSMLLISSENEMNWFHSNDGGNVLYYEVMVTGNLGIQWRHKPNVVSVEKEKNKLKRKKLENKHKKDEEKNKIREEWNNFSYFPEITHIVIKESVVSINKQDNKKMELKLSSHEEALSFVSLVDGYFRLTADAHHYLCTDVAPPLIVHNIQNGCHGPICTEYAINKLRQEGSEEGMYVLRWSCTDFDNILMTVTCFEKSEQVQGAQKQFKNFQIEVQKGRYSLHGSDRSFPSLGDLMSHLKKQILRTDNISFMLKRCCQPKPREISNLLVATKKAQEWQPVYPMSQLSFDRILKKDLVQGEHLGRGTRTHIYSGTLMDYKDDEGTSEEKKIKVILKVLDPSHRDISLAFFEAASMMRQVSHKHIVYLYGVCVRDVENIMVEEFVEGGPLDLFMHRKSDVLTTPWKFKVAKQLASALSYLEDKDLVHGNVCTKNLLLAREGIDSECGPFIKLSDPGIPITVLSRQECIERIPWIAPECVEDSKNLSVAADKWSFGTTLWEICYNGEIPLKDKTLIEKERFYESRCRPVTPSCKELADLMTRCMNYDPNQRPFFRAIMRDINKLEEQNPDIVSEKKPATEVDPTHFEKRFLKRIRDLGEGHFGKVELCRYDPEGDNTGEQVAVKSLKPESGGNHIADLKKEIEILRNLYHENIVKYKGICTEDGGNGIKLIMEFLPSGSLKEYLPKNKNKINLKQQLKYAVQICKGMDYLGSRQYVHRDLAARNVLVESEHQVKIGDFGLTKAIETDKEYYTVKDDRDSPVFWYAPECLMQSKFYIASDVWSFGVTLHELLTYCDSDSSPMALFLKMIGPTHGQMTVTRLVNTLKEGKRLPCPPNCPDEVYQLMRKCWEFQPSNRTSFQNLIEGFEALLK
Tyk2 kinase activity on STAT4 in NK92 cells, sequence (P29597 whole entry): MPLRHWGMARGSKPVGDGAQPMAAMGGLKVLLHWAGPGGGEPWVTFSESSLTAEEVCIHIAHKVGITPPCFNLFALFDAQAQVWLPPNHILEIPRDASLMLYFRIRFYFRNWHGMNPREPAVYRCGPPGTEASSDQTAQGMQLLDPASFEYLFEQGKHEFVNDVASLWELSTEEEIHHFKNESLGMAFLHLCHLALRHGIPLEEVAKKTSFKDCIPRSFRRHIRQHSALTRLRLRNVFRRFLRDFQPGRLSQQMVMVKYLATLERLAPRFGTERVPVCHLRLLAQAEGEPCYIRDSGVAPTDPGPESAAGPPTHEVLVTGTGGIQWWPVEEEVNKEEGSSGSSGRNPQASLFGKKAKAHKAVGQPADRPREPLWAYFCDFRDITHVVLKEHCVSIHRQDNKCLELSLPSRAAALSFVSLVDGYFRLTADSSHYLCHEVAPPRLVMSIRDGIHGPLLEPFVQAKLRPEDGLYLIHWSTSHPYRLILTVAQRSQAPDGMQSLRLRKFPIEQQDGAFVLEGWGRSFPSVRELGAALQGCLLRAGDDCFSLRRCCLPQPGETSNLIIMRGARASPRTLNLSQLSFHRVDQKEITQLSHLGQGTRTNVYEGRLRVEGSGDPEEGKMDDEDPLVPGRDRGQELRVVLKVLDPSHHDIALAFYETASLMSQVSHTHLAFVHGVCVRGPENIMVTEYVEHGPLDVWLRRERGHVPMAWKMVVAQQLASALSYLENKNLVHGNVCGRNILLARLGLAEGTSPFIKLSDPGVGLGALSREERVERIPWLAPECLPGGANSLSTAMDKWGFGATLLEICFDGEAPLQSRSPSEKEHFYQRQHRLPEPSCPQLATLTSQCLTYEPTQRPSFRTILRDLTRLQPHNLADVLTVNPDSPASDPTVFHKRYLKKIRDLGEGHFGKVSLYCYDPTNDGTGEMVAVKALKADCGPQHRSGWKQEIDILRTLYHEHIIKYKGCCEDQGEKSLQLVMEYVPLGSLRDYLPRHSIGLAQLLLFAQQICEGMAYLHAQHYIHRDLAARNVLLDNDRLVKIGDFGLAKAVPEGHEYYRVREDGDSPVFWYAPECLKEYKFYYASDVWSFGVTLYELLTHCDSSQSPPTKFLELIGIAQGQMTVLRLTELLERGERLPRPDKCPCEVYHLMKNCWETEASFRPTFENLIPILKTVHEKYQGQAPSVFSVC
T1 sequence (P23458 875-1153 limits assumed): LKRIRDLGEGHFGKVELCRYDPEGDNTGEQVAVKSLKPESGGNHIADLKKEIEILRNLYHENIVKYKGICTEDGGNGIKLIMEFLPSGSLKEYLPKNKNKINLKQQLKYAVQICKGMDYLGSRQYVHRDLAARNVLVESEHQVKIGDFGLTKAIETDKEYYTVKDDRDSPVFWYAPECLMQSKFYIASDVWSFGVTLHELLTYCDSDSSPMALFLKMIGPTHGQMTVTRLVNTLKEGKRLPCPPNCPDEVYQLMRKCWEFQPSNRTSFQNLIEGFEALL
T2 sequence (O60674 849-1124 limits assumed): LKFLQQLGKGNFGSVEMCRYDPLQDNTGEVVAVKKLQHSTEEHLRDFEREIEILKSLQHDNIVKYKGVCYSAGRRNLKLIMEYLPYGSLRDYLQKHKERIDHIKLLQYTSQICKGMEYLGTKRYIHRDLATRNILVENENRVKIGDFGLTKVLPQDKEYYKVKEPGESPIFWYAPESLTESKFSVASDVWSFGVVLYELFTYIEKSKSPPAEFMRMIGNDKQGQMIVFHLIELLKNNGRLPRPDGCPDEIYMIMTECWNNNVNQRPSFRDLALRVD
T4 sequence (P52333 822-1111 limits assumed): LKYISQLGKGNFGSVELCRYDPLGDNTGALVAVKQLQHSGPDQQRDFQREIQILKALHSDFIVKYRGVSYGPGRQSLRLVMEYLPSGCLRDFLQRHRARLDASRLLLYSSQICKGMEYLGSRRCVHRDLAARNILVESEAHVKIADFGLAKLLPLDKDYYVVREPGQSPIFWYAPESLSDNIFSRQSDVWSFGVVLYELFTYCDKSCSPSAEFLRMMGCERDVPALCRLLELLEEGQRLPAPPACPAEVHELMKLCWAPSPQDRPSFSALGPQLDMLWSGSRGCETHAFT

Row | Structure (SMILES) | IC50 [1] [nM] | IC50 ([2]; JAK1 JH1, ADP-Glo) [nM] | IC50 ([3]; JAK2 JH1, ADP-Glo) [nM] | IC50 ([4]; TYK2 JH1, ADP-Glo) [nM] | IC50 [5] [nM] | IC50 ([6]; JAK3 JH1, ADP-Glo) [nM] | IC50 [7] [nM] | IC50 ([2]; JH1 kinase domain, ADP-Glo) [nM] | IC50 ([3]; JH1 kinase domain, ADP-Glo) [nM] | IC50 ([4]; JH1 kinase domain, ADP-Glo) [nM] | IC50 ([6]; JH1 kinase domain, ADP-Glo) [nM]
1 | C[C@@H]1CN(c2nc(-c3cnn([C@H]4CO[C@@H]4C)c3)cn3ncc(F)c23)C(=O)[C@]1(C#N)C1CC1 (relative stereo) [Example 306, (3R,4S)-3-cyclopropyl-1-(3-fluoro-6-(1-((2R,3 S)-2-methyloxetan-3-yl)-1H-pyrazol-4-yl)pyrazolo[1,5-a]pyrazin-4-yl)-4-methyl-2-oxopyrrolidine-3-carbonitrile and (3R,4S)-3-cyclopropyl-1-(3-fluoro-6-(1-((2S,3R)-2-methyloxetan-3-yl)-1H-pyrazol-4-yl)pyrazolo[1,5-a]pyrazin-4-yl)-4-methyl-2-oxopyrrolidine-3-carbonitrile] | 20 to 50 | < 100 | < 100 | < 5 | 100 to 1000 | < 100 | 1000 to 5000 | – | – | – | –
2 | C[C@@H]1CN(c2ccnn3cc(-c4c[nH]c5ncccc45)cc23)C(=O)[C@]1(C#N)C1CC1 [Example 72, (3R,4S)-1-(6-(1H-pyrrolo[2,3-b]pyridin-3-yl)pyrrolo[1,2-b]pyridazin-4-yl)-3-cyclopropyl-4-methyl-2-oxopyrrolidine-3-carbonitrile] | > 100 | – | – | – | 1000 to 5000 | – | 5000 to 10000 | 100 to 1000 | 100 to 1000 | 5 to 20 | 100 to 1000
3 | C[C@@H]1CN(c2ccnn3cc(-c4cnn(C5CCOC5)c4)cc23)C(=O)[C@]1(C#N)C1CC1 (stereo partly drawn) [Example 162, (3R,4S)-3-cyclopropyl-4-methyl-2-oxo-1-(6-(1-(tetrahydrofuran-3-yl)-1H-pyrazol-4-yl)pyrrolo[1,2-b]pyridazin-4-yl)pyrrolidine-3-carbonitrile] | 20 to 50 | – | – | – | 1000 to 5000 | – | 1000 to 5000 | < 100 | < 100 | < 5 | < 100
4 | C[C@@H]1CN(c2ccnn3cc(-c4cnn(C)c4)cc23)C(=O)[C@]1(C#N)C1CC1 [Example 34, (3R,4S)-3-cyclopropyl-4-methyl-1-(6-(1-methyl-1H-pyrazol-4-yl)pyrrolo[1,2-b]pyridazin-4-yl)-2-oxopyrrolidine-3-carbonitrile] | 20 to 50 | – | – | – | 1000 to 5000 | – | 5000 to 10000 | 100 to 1000 | 100 to 1000 | < 5 | 100 to 1000
5 | C[C@@H]1CN(c2nc(-c3cnc4c(c3)CCC(=O)N4)cn3nccc23)C(=O)[C@]1(C#N)C1CC1 [Example 204, (3R,4S)-3-cyclopropyl-4-methyl-2-oxo-1-(6-(7-oxo-5,6,7,8-tetrahydro-1,8-naphthyridin-3-yl)pyrazolo[1,5-a]pyrazin-4-yl)pyrrolidine-3-carbonitrile] | 50 to 100 | – | – | – | 1000 to 5000 | – | 1000 to 5000 | < 100 | < 100 | < 5 | < 100
6 | C[C@@H]1CN(c2ccnn3cc(-c4cnn(C5COC5)c4)cc23)C(=O)[C@]1(C#N)C1CC1 [Example 97, (3R,4S)-3-cyclopropyl-4-methyl-1-(6-(1-(oxetan-3-yl)-1H-pyrazol-4-yl)pyrrolo[1,2-b]pyridazin-4-yl)-2-oxopyrrolidine-3-carbonitrile] | 20 to 50 | – | – | – | 1000 to 5000 | – | 1000 to 5000 | < 100 | < 100 | < 5 | < 100
7 | COc1cc(-c2cc3c(N4CC[C@](C#N)(C5CC5)C4=O)ccnc3[nH]2)ccn1 [Example 5, (R)-3-cyclopropyl-1-(2-(2-methoxypyridin-4-yl)-1H-pyrrolo[2,3-b]pyridin-4-yl)-2-oxopyrrolidine-3-carbonitrile] | > 100 | – | – | – | 5000 to 10000 | – | > 10000 | 1000 to 5000 | 100 to 1000 | > 100 | 1000 to 5000
8 | C[C@@H]1CN(c2ccnn3cc(-c4cnn([C@@H]5CC5(F)F)c4)cc23)C(=O)[C@]1(C#N)C1CC1 (single isomer, unassigned) [Example 155] | 50 to 100 | – | – | – | 1000 to 5000 | – | 1000 to 5000 | < 100 | 100 to 1000 | < 5 | 100 to 1000
9 | CC(C)n1cc(-c2cc3nccc(N4C[C@@H](C)[C@@](C#N)(C5CC5)C4=O)c3o2)cn1 [Example 346, (3R,4S)-3-cyclopropyl-1-(2-(1-isopropyl-1H-pyrazol-4-yl)furo[3,2-b]pyridin-7-yl)-4-methyl-2-oxopyrrolidine-3-carbonitrile] | > 100 | < 100 | 100 to 1000 | < 5 | 1000 to 5000 | < 100 | 1000 to 5000 | – | – | – | –
10 | Cc1cc(-n2nc(N3C[C@@H](C)[C@@](C#N)(C4CC4)C3=O)c3ccncc32)ccn1 [Example 281, (3R,4S)-3-cyclopropyl-4-methyl-1-(1-(2-methylpyridin-4-yl)-1H-pyrazolo[3,4-c]pyridin-3-yl)-2-oxopyrrolidine-3-carbonitrile] | > 100 | 100 to 1000 | 1000 to 5000 | 5 to 20 | 1000 to 5000 | 100 to 1000 | > 10000 | – | – | – | –
11 | COC[C@@]1(C#N)CCN(c2ccnn3cc(-c4cnn(C)c4)cc23)C1=O (single isomer, unassigned) [Example 40] | > 100 | – | – | – | > 10000 | – | > 10000 | 1000 to 5000 | 100 to 1000 | 50 to 100 | 100 to 1000
12 | CCc1ccc(-c2cc3c(N4C[C@@H](C)[C@@](C#N)(C5CC5)C4=O)ccnn3c2)cn1 [Example 174, (3R,4S)-3-cyclopropyl-1-(6-(6-ethylpyridin-3-yl)pyrrolo[1,2-b]pyridazin-4-yl)-4-methyl-2-oxopyrrolidine-3-carbonitrile trifluoroacetate] | 50 to 100 | – | – | – | 1000 to 5000 | – | 5000 to 10000 | 100 to 1000 | 100 to 1000 | 5 to 20 | 100 to 1000
13 | C[C@@H]1CN(c2ccnn3cc(-c4cnn5c4CCC5)cc23)C(=O)[C@]1(C#N)C1CC1 [Example 171, (3R,4S)-3-cyclopropyl-1-(6-(5,6-dihydro-4H-pyrrolo[1,2-b]pyrazol-3-yl)pyrrolo[1,2-b]pyridazin-4-yl)-4-methyl-2-oxopyrrolidine-3-carbonitrile] | > 100 | – | – | – | 5000 to 10000 | – | > 10000 | 100 to 1000 | 100 to 1000 | 5 to 20 | 100 to 1000
14 | C[C@@H]1CN(c2nc(-c3cnn4c3COCC4)cn3ncc(F)c23)C(=O)[C@]1(C#N)C1CC1 [Example 192, (3R,4S)-3-cyclopropyl-1-(6-(6,7-dihydro-4H-pyrazolo[5,1-c][1,4]oxazin-3-yl)-3-fluoropyrazolo[1,5-a]pyrazin-4-yl)-4-methyl-2-oxopyrrolidine-3-carbonitrile] | > 100 | – | – | – | 1000 to 5000 | – | > 10000 | < 100 | 100 to 1000 | 5 to 20 | < 100
15 | C[C@@H]1CN(c2nc(-c3cnn(CC4COC4)c3)cn3ncc(F)c23)C(=O)[C@]1(C#N)C1CC1 [Example 304, (3R,4S)-3-cyclopropyl-1-(3-fluoro-6-(1-(oxetan-3-ylmethyl)-1H-pyrazol-4-yl)pyrazolo[1,5-a]pyrazin-4-yl)-4-methyl-2-oxopyrrolidine-3-carbonitrile] | 50 to 100 | < 100 | < 100 | < 5 | 100 to 1000 | < 100 | 1000 to 5000 | – | – | – | –
16 | C[C@@H]1CN(c2nc(-c3cnn(C4COC4)c3)cn3ncc(F)c23)C(=O)[C@]1(C#N)C1CC1 [Example 291, (3R,4S)-3-cyclopropyl-1-(3-fluoro-6-(1-(oxetan-3-yl)-1H-pyrazol-4-yl)pyrazolo[1,5-a]pyrazin-4-yl)-4-methyl-2-oxopyrrolidine-3-carbonitrile] | 50 to 100 | < 100 | < 100 | < 5 | 1000 to 5000 | < 100 | 1000 to 5000 | – | – | – | –
